# Measured values reported in patent US10988524B2, “Modified relaxin B chain peptides and their therapeutic use” (priority 2018, dated 2021).
# Non-standard residues stand in square brackets, D forms with d. Residues, ends and D or L forms follow the SMILES beside them. 1Nal = N[C@@H](Cc1cccc2ccccc12)C(=O)O; Nle = CCCC[C@H](N)C(=O)O; Aib = CC(C)(N)C(=O)O
# Biological target: T1, RXFP1 (Homo sapiens, UniProt Q9HBX9)
# T1 sequence (Q9HBX9 1-757): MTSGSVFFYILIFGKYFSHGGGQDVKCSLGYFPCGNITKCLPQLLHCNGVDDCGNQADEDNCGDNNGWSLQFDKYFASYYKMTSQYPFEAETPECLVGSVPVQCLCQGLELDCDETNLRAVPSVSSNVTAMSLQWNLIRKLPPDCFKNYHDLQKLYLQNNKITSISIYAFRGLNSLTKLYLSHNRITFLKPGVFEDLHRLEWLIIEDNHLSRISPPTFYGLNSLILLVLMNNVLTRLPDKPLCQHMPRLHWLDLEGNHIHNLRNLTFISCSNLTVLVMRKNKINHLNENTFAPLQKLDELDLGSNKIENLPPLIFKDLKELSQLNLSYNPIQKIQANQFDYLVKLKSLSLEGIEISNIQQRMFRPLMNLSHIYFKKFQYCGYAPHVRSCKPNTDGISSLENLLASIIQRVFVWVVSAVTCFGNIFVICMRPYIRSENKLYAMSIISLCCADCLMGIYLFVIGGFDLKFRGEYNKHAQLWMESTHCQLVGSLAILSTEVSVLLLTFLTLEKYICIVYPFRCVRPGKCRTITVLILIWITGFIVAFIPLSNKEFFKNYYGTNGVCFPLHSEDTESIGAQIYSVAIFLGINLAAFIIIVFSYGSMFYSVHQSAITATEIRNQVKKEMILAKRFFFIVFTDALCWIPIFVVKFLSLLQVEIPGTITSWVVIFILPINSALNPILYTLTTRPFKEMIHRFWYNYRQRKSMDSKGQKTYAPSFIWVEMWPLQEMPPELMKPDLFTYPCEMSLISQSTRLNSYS
# Test: OVCAR5 cAMP assay (RXFP1 agonist activity, HTRF)
# Details: for Emax: OVCAR-5, read-out: cAMP assay in OVCAR 5 cells Emax, maximal intracellular cAMP relative to H2-relaxin in the same test occasion
Emax [%],"EC50 (cAMP assay in OVCAR 5 cells EC50 (nM), OVCAR5 cells expressing endogenous RXFP1, cAMP by HTRF, 30 min at 37° C., 1 mM IBMX) [nM]",Structure (SMILES)
97,–,CC[C@H](C)[C@H](NC(=O)[C@H](CCC(N)=O)NC(=O)[C@H](C)NC(=O)[C@H](CCCNC(=N)N)NC(=O)[C@@H](NC(=O)[C@H](CCCCN)NC(=O)[C@H](CCC(=O)O)NC(=O)[C@H](CCCNC(=N)N)NC(=O)CNC(=O)[C@H](CCC(=O)O)NC(=O)[C@@H](N)CC(C)C)C(C)C)C(=O)NC(C)(C)C(=O)N[C@H](C(=O)N[C@@H](CCC(=O)O)C(=O)NCC(=O)N[C@@H](CCSC)C(=O)N[C@@H](CO)C(=O)N[C@@H](CCCCN)C(=O)N[C@@H](Cc1c[nH]c2ccccc12)C(=O)N[C@@H](CO)C(=O)N[C@@H](CCCCN)C(=O)N[C@@H](CCCNC(=N)N)C(=O)N[C@@H](CCCCN)C(=O)N[C@@H](CCCCN)C(N)=O)[C@@H](C)CC [compound 6] (H-LEGREKVRAQI[Aib]IEGMSKWSKRKK-NH2)
101,–,CC[C@H](C)[C@H](NC(=O)[C@H](CCC(N)=O)NC(=O)C(C)(C)NC(=O)[C@H](CCCNC(=N)N)NC(=O)[C@@H](NC(=O)[C@H](CCCCN)NC(=O)[C@H](CCC(=O)O)NC(=O)[C@H](CCCNC(=N)N)NC(=O)CNC(=O)[C@H](CCC(=O)O)NC(=O)[C@H](CC(C)C)NC(C)=O)C(C)C)C(=O)NC(C)(C)C(=O)N[C@H](C(=O)N[C@@H](CCC(=O)O)C(=O)NCC(=O)N[C@@H](CCSC)C(=O)N[C@@H](CO)C(=O)N[C@@H](CCCCN)C(=O)N[C@@H](Cc1c[nH]c2ccccc12)C(=O)N[C@@H](CO)C(=O)N[C@@H](CCCCN)C(=O)N[C@@H](CCCNC(=N)N)C(=O)N[C@@H](CCCCN)C(=O)N[C@@H](CCCCN)C(N)=O)[C@@H](C)CC [compound 7] (Ac-LEGREKVR[Aib]QI[Aib]IEGMSKWSKRKK-NH2)
103,–,CCCC[C@H](NC(=O)CNC(=O)[C@H](CCC(=O)O)NC(=O)[C@@H](NC(=O)C(C)(C)NC(=O)[C@@H](NC(=O)[C@H](CCC(N)=O)NC(=O)[C@H](C)NC(=O)[C@H](CCCNC(=N)N)NC(=O)[C@@H](NC(=O)[C@H](CCCCN)NC(=O)[C@H](CCC(=O)O)NC(=O)[C@H](CCCNC(=N)N)NC(=O)CNC(=O)[C@H](CCC(=O)O)NC(=O)[C@H](CC(C)C)NC(C)=O)C(C)C)[C@@H](C)CC)[C@@H](C)CC)C(=O)N[C@@H](CO)C(=O)N[C@@H](CCCCN)C(=O)N[C@@H](Cc1c[nH]c2ccccc12)C(=O)N[C@@H](CO)C(=O)N[C@@H](CCCCN)C(=O)N[C@@H](CCCNC(=N)N)C(=O)N[C@@H](CCCCN)C(=O)N[C@@H](CCCCN)C(N)=O [compound 8] (Ac-LEGREKVRAQI[Aib]IEG[Nle]SKWSKRKK-NH2)
100,–,CC[C@H](C)[C@H](NC(=O)[C@H](CCC(N)=O)NC(=O)[C@H](C)NC(=O)[C@H](CCCNC(=N)N)NC(=O)[C@@H](NC(=O)[C@H](CCCCN)NC(=O)[C@H](CCC(=O)O)NC(=O)[C@H](CCCNC(=N)N)NC(=O)CNC(=O)[C@H](CCC(=O)O)NC(=O)[C@H](CC(C)C)NC(C)=O)C(C)C)C(=O)NC(C)(C)C(=O)N[C@H](C(=O)N[C@@H](CCC(=O)O)C(=O)NCC(=O)N[C@@H](CCSC)C(=O)N[C@@H](CO)C(=O)N[C@@H](CCCCN)C(=O)N[C@@H](Cc1cccc2ccccc12)C(=O)N[C@@H](CO)C(=O)N[C@@H](CCCCN)C(=O)N[C@@H](CCCNC(=N)N)C(=O)N[C@@H](CCCCN)C(=O)N[C@@H](CCCCN)C(N)=O)[C@@H](C)CC [compound 9] (Ac-LEGREKVRAQI[Aib]IEGMSK[1Nal]SKRKK-NH2)
103,–,CC[C@H](C)[C@H](NC(=O)[C@H](CCC(N)=O)NC(=O)[C@H](C)NC(=O)[C@H](CCCNC(=N)N)NC(=O)[C@@H](NC(=O)[C@H](CCCCN)NC(=O)[C@H](CCC(=O)O)NC(=O)[C@H](CCCNC(=N)N)NC(=O)CNC(=O)[C@H](CCC(=O)O)NC(=O)[C@H](CC(C)C)NC(C)=O)C(C)C)C(=O)NC(C)(C)C(=O)NC(C)(C)C(=O)N[C@@H](CCC(=O)O)C(=O)NCC(=O)N[C@@H](CCSC)C(=O)N[C@@H](CO)C(=O)N[C@H](C(=O)N[C@@H](Cc1c[nH]c2ccccc12)C(=O)N[C@@H](CO)C(=O)N[C@@H](CCCCN)C(=O)N[C@@H](CCCNC(=N)N)C(=O)N[C@@H](CCCCN)C(=O)N[C@@H](CCCCN)C(N)=O)[C@@H](C)O [compound 10] (Ac-LEGREKVRAQI[Aib][Aib]EGMSTWSKRKK-NH2)
102,–,CC[C@H](C)[C@H](NC(=O)[C@H](CCC(N)=O)NC(=O)[C@H](C)NC(=O)[C@H](CCCNC(=N)N)NC(=O)[C@@H](NC(=O)[C@H](CCCCN)NC(=O)[C@H](CCC(=O)O)NC(=O)[C@H](CCCNC(=N)N)NC(=O)CNC(=O)[C@H](CCC(=O)O)NC(=O)C(C)(C)NC(C)=O)C(C)C)C(=O)NC(C)(C)C(=O)NC(C)(C)C(=O)N[C@@H](CCC(=O)O)C(=O)NCC(=O)N[C@@H](CCSC)C(=O)N[C@@H](CO)C(=O)N[C@@H](CCCCN)C(=O)N[C@@H](Cc1c[nH]c2ccccc12)C(=O)N[C@@H](CO)C(=O)N[C@@H](CCCCN)C(=O)N[C@@H](CCCNC(=N)N)C(=O)N[C@@H](CCCCN)C(=O)N[C@@H](CCCCN)C(N)=O [compound 11] (Ac-[Aib]EGREKVRAQI[Aib][Aib]EGMSKWSKRKK-NH2)
99,–,CC[C@H](C)[C@H](NC(=O)[C@H](CCC(N)=O)NC(=O)[C@H](C)NC(=O)[C@H](CCCNC(=N)N)NC(=O)[C@@H](NC(=O)[C@H](CCCCN)NC(=O)[C@H](CCC(=O)O)NC(=O)[C@H](CCCNC(=N)N)NC(=O)CNC(=O)[C@H](CCC(=O)O)NC(=O)C(C)(C)N)C(C)C)C(=O)NC(C)(C)C(=O)NC(C)(C)C(=O)N[C@@H](CCC(=O)O)C(=O)NCC(=O)N[C@@H](CCSC)C(=O)N[C@@H](CO)C(=O)N[C@@H](CCCCN)C(=O)N[C@@H](Cc1c[nH]c2ccccc12)C(=O)N[C@@H](CO)C(=O)N[C@@H](CCCCN)C(=O)N[C@@H](CCCNC(=N)N)C(=O)N[C@@H](CCCCN)C(=O)N[C@@H](CCCCN)C(N)=O [compound 12] (H-[Aib]EGREKVRAQI[Aib][Aib]EGMSKWSKRKK-NH2)
97,–,CCCC[C@H](NC(=O)CNC(=O)[C@H](CCC(=O)O)NC(=O)C(C)(C)NC(=O)C(C)(C)NC(=O)[C@@H](NC(=O)[C@H](CCC(N)=O)NC(=O)[C@H](C)NC(=O)[C@H](CCCNC(=N)N)NC(=O)[C@@H](NC(=O)[C@H](CCCCN)NC(=O)[C@H](CCC(=O)O)NC(=O)[C@H](CCCNC(=N)N)NC(=O)CNC(=O)[C@H](CCC(=O)O)NC(=O)[C@H](CC(C)C)NC(C)=O)C(C)C)[C@@H](C)CC)C(=O)N[C@@H](CO)C(=O)N[C@H](C(=O)N[C@@H](Cc1c[nH]c2ccccc12)C(=O)N[C@@H](CO)C(=O)N[C@@H](CCCCN)C(=O)N[C@@H](CCCNC(=N)N)C(=O)N[C@@H](CCCCN)C(=O)N[C@@H](CCCCN)C(N)=O)[C@@H](C)O [compound 13] (Ac-LEGREKVRAQI[Aib][Aib]EG[Nle]STWSKRKK-NH2)
106,32.8,CCCC[C@H](NC(=O)CNC(=O)[C@H](CCC(=O)O)NC(=O)C(C)(C)NC(=O)C(C)(C)NC(=O)[C@@H](NC(=O)[C@H](CCC(N)=O)NC(=O)[C@H](C)NC(=O)[C@H](CCCNC(=N)N)NC(=O)[C@@H](NC(=O)[C@H](CCCCN)NC(=O)[C@H](CCC(=O)O)NC(=O)[C@H](CCCNC(=N)N)NC(=O)CNC(=O)[C@H](CCC(=O)O)NC(=O)[C@H](CC(C)C)NC(C)=O)C(C)C)[C@@H](C)CC)C(=O)N[C@@H](CO)C(=O)N[C@@H](CCCCN)C(=O)N[C@@H](Cc1cccc2ccccc12)C(=O)N[C@@H](CO)C(=O)N[C@@H](CCCCN)C(=O)N[C@@H](CCCNC(=N)N)C(=O)N[C@@H](CCCCN)C(=O)N[C@@H](CCCCN)C(N)=O [compound 14] (Ac-LEGREKVRAQI[Aib][Aib]EG[Nle]SK[1Nal]SKRKK-NH2)
